Assay results reported in patent publication US10131645B2, “Benzofurans substituted with primary benzamide as HCV inhibitors” (BRISTOL-MYERS SQUIBB COMPANY, priority 2015, dated 2018).

Tested on: genotype 1b (Con-1) HCV replicon
Assay: HCV Replicon Luciferase Assay
Type: cell-based
Details: Hepatitis C virus, 72 h; Huh-7 cells, genotype 1b replicon, Renilla luciferase, 3 days incubation; read-out: EC50 1b (class)
Method: The cell lines used to evaluate compounds consist of a human hepatocyte derived cell line (Huh-7) that constitutively expresses a genotype 1b (Con-1) HCV replicon or a genotype 1b (Con-1) HCV replicon with an asparagine replacing the cysteine at amino acid 316, or a genotype 2a (JFH-1) replicon, containing a Renilla luciferase reporter gene. These cells were maintained in Dulbecco's modified Eagle medium (DMEM) containing 10% FBS, 100 U/mL penicillin/streptomycin and 1.0 mg/mL G418.
To evaluate compound efficacy, titrated compounds were transferred to sterile 384-well tissue culture treated plates, and the plates were seeded with HCV replicon cells (50 μL at a density of 2.4×10^3 cells/well) in DMEM containing 4% FBS (final DMSO concentration at 0.5%). After 3 days incubation at 37° C., cells were analyzed for Renilla Luciferase activity using the EnduRen substrate (Promega cat #E6485) according to the manufacturer's directions. Briefly, the EnduRen substrate was diluted in DMEM and then added to the plates to a final concentration of 7.5 μM. The plates were incubated for at least 1 h at 37° C. then read on a Viewlux Imager (PerkinElmer) using a luminescence program. The 50% effective concentration (EC50) was calculated using the four-parameter logistic formula noted above.

Row | SMILES | EC50 [µM]
1 | CCNc1cc2oc(-c3ccc(F)cc3)c(C(=O)NC)c2cc1-c1cccc(C(=O)NCC(F)(F)c2ccccn2)c1 [Compound 1002] | < 0.1
2 | CCNc1cc2oc(-c3ccc(F)cc3)c(C(=O)NC)c2cc1-c1cccc(C(=O)NCC(C)(C)c2ccccc2)c1 [Compound 1003] | < 0.1
3 | CCNc1cc2oc(-c3ccc(F)cc3)c(C(=O)NC)c2cc1-c1cccc(C(=O)NCC(C)(C)c2ccc(Cl)cc2)c1 [Compound 1004] | < 0.1
4 | CCNc1cc2oc(-c3ccc(F)cc3)c(C(=O)NC)c2cc1-c1cccc(C(=O)NC(C)(C(=O)OC)C(F)(F)F)c1 (centres unmarked) [Compound 1005] | < 0.1
5 | CCNc1cc2oc(-c3ccc(F)cc3)c(C(=O)NC)c2cc1-c1cccc(C(=O)NC(C#N)C(=O)NC)c1 (centres unmarked) [Compound 1007] | < 0.1
6 | CCNc1cc2oc(-c3ccc(F)cc3)c(C(=O)NC)c2cc1-c1cccc(C(=O)NC(C#N)C(N)=O)c1 (centres unmarked) [Compound 1008] | < 0.1
7 | CCNc1cc2oc(-c3ccc(F)cc3)c(C(=O)NC)c2cc1-c1cccc(C(=O)NC[C@H](F)CO)c1 [Compound 1009] | < 0.1
8 | CCNc1cc2oc(-c3ccc(F)cc3)c(C(=O)NC)c2cc1-c1cccc(C(=O)NC(C)(C#N)C2CC2)c1 (centres unmarked) [Compound 1010] | < 0.1
9 | CCNc1cc2oc(-c3ccc(F)cc3)c(C(=O)NC)c2cc1-c1cccc(C(=O)NC(C(=O)OC)C(F)(F)F)c1 (centres unmarked) [Compound 1012] | 0.1 to 1
10 | CCN(c1cc2oc(-c3ccc(F)cc3)c(C(=O)NC)c2cc1-c1cccc(C(=O)NC(c2ccccc2)C(F)(F)F)c1)S(C)(=O)=O (centres unmarked) [Compound 2001] | < 0.1
11 | CCN(c1cc2oc(-c3ccc(F)cc3)c(C(=O)NC)c2cc1-c1cccc(C(=O)NC(c2ccccn2)C(F)(F)F)c1)S(C)(=O)=O (centres unmarked) [Compound 2002] | < 0.1
12 | CCN(c1cc2oc(-c3ccc(F)cc3)c(C(=O)NC)c2cc1-c1cccc(C(=O)NC(C2CC2)C(F)(F)F)c1)S(C)(=O)=O (centres unmarked) [Compound 2003] | < 0.1
13 | CCN(c1cc2oc(-c3ccc(F)cc3)c(C(=O)NC)c2cc1-c1cccc(C(=O)NC(C(=O)OC)C(F)(F)F)c1)S(C)(=O)=O (centres unmarked) [Compound 2005] | 0.1 to 1
14 | CCN(c1cc2oc(-c3ccc(F)cc3)c(C(=O)NC)c2cc1-c1cccc(C(=O)NC(C#N)c2ccccc2)c1)S(C)(=O)=O (centres unmarked) [Compound 2006] | < 0.1
15 | CCN(c1cc2oc(-c3ccc(F)cc3)c(C(=O)NC)c2cc1-c1cccc(C(=O)NC(C(N)=O)c2ccccc2)c1)S(C)(=O)=O (centres unmarked) [Compound 2007] | 0.1 to 1
16 | CCOc1cc(C(C#N)NC(=O)c2cccc(-c3cc4c(C(=O)NC)c(-c5ccc(F)cc5)oc4cc3N(CC)S(C)(=O)=O)c2)ccc1OC(C)C (centres unmarked) [Compound 2008] | < 0.1
17 | CNC(=O)c1c(-c2ccc(F)cc2)oc2cc(N(CC3CC3)S(C)(=O)=O)c(-c3cccc(C(=O)NC(C)(C#N)C4CC4)c3)cc12 (centres unmarked) [Compound 3001] | < 0.1
18 | CNC(=O)c1c(-c2ccc(F)cc2)oc2cc(N(CCF)S(C)(=O)=O)c(-c3cccc(C(=O)N[C@H](COC)C4CC4)c3)cc12 [Compound 4001] | < 0.1
19 | CNC(=O)c1c(-c2ccc(F)cc2)oc2cc(N(CCF)S(C)(=O)=O)c(-c3cccc(C(=O)N[C@@H](COC)C4CC4)c3)cc12 [Compound 4002] | < 0.1
20 | CNC(=O)c1c(-c2ccc(F)cc2)oc2cc(N(CCF)S(C)(=O)=O)c(-c3cccc(C(=O)N[C@@H](CO)C4CC4)c3)cc12 [Compound 4003] | < 0.1
21 | CNC(=O)c1c(-c2ccc(F)cc2)oc2cc(N(CCCF)S(C)(=O)=O)c(-c3cccc(C(=O)NC(c4ccccn4)C(F)(F)F)c3)cc12 (centres unmarked) [Compound 5002] | < 0.1
22 | CNC(=O)c1c(-c2ccc(F)cc2)oc2cc(N(CCCF)S(C)(=O)=O)c(-c3cccc(C(=O)NC(C)(C#N)C4CC4)c3)cc12 (centres unmarked) [Compound 5003] | < 0.1
23 | CCN(CC)c1cc2oc(-c3ccc(F)cc3)c(C(=O)NC)c2cc1-c1cccc(C(=O)NC(C(N)=O)c2ccccc2)c1 (centres unmarked) [Compound 6001] | < 0.1
24 | CCN(CC)c1cc2oc(-c3ccc(F)cc3)c(C(=O)NC)c2cc1-c1cccc(C(=O)N[C@@H](CO)C(N)=O)c1 [Compound 6002] | 0.1 to 1
25 | CCN(CC)c1cc2oc(-c3ccc(F)cc3)c(C(=O)NC)c2cc1-c1cccc(C(=O)NCC(C(=O)O)C(F)(F)F)c1 (centres unmarked) [Compound 6005] | 0.1 to 1
26 | CCN(C(=O)C(F)(F)F)c1cc2oc(-c3ccc(F)cc3)c(C(=O)NC)c2cc1-c1cccc(C(=O)NC(C(=O)OC)C(F)(F)F)c1 (centres unmarked) [Compound 7001] | 0.1 to 1

Same assay, conditions: Hepatitis C virus, 72 h; Huh-7 cells, genotype 1b replicon, Renilla luciferase, 3 days incubation; read-out: EC50 (uM) 1b

Row | SMILES | EC50 [µM]
27 | CCNc1cc2oc(-c3ccc(F)cc3)c(C(=O)NC)c2cc1-c1cccc(C(=O)NCC(F)(F)c2ccccc2)c1 [Compound 1001] | 0.0486
28 | CCNc1cc2oc(-c3ccc(F)cc3)c(C(=O)NC)c2cc1-c1cccc(C(=O)NC(C#N)c2ccccc2)c1 (centres unmarked) [Compound 1006] | 0.0162
29 | CCNc1cc2oc(-c3ccc(F)cc3)c(C(=O)NC)c2cc1-c1cccc(C(=O)NC(C2CC2)C(F)(F)F)c1 (centres unmarked) [Compound 1011] | 0.0128
30 | CCN(c1cc2oc(-c3ccc(F)cc3)c(C(=O)NC)c2cc1-c1cccc(C(=O)NC(c2cccnc2)C(F)(F)F)c1)S(C)(=O)=O (centres unmarked) [Compound 2004] | 0.0096
31 | CCN(c1cc2oc(-c3ccc(F)cc3)c(C(=O)NC)c2cc1-c1cccc(C(=O)NC(C)(C#N)C2CC2)c1)S(C)(=O)=O (centres unmarked) [Compound 2009] | 0.0032
32 | CNC(=O)c1c(-c2ccc(F)cc2)oc2cc(N(CCCF)S(C)(=O)=O)c(-c3cccc(C(=O)NC(C4CC4)C(F)(F)F)c3)cc12 (centres unmarked) [Compound 5001] | 0.0229
33 | CCN(CC)c1cc2oc(-c3ccc(F)cc3)c(C(=O)NC)c2cc1-c1cccc(C(=O)N[C@]2(C(=O)O)C[C@@H]2CO)c1 [Compound 6004] | 0.946

Tested on: HCV
Assay: not given
Details: extended dosing of the combination regimens; cited from earlier work

Row | SMILES | hepatic toxicity
34 | CNC(=O)c1c(-c2ccc(F)cc2)oc2cc(N(CCO)S(C)(=O)=O)c(C3CC3)cc12 [HCV-796] | hepatic toxicity observed

Same assay, conditions: patients; single agent transient, more robust with interferon and ribavirin; cited from earlier work

Row | SMILES | HCV RNA levels in patients
35 | CNC(=O)c1c(-c2ccc(F)cc2)oc2cc(N(CCO)S(C)(=O)=O)c(C3CC3)cc12 [HCV-796] | reduce HCV RNA levels
